This note sets out measurements from patent US8609674B2, “Potassium channel modulators” (AbbVie Inc., priority 2010, dated 2013).

Experiment [1] relates to capsaicin-induced secondary mechanical hyperalgesia. Briefly: Capsaicin-induced secondary mechanical hypersensitivity. Type of experiment: in vivo, Sprague-Dawley rats. As to conditions: rat, about 30 mg/kg i.p., 30 min before testing, 180 min after capsaicin. An excerpt: (§1) Adult male Sprague-Dawley rats (250-300 g body weight, Charles River Laboratories, Portage, Mich.) were used. Animal handling and experimental protocols were approved by the Institutional Animal Care and Use Committee (IACUC) at Abbott Laboratories. For all surgical procedures, animals were maintained under isoflurane anesthesia (4-5% to induce, 1-3% to maintain), and the incision sites were sterilized using a 10% povidone-iodine solution prior to and after surgeries.
Rats were allowed to acclimate to the study room for 1 hour. They were then briefly restrained, and capsaicin was administered at 10 μg in 10 μl of vehicle (10% ethanol and 2-hydroxypropyl cyclodextrin) by intraplantar injection into the center of the right hind paw. Secondary mechanical hyperalgesia was measured at the heel away from the site of injection at 180 min following capsaicin (Joshi et al 2006, Neuroscience 143, 587-596). Compounds were injected (i.p.) 30 min before testing (150 min post-capsaicin).
(§2) Tactile (mechanical) allodynia was measured using calibrated von Frey filaments (Stoelting, Wood Dale, Ill.) as described in Chaplan, S. R., F. W. Bach, J. M. Pogrel, J. M. Chung and T. L. Yaksh, 1994, Quantitative assessment of tactile allodynia in the rat paw, J. Neurosci. Methods, 53, 55. Rats were placed into inverted individual plastic containers (20×12.5×20 cm) on top of a suspended wire mesh grid, and acclimated to the test chambers for 20 minutes. […] A 50% withdrawal threshold was determined using an up-down procedure (Dixon, W. J., 1980, Efficient analysis of experimental observations, Ann. Rev. Pharmacol. Toxicol., 20, 441). […] Tactile allodynia thresholds were also assessed in several control groups, including naive, sham-operated, and saline infused animals as well as in the contralateral paws of nerve-injured rats. To evaluate the anti-nociceptive effects, animals were administered vehicle or test compound and tactile allodynia was assessed 30 minutes after i.p. administration.
Tactile allodynia was measured as described above.

Experiment [2] addresses T1, human KCNQ4 (Homo sapiens, UniProt P56696).
T1 construct: expressed in transfected cells; host or cells: HEK293
The experiment can be described thus: KCNQ4 thallium influx FLIPR TETRA assay. Type of experiment: cell-based. As to conditions: for EC50: HEK293 cells stably expressing human KCNQ4, Tl+ influx; for Emax: maximum response relative to 10 μM retigabine (=100%), read-out: KCNQ4 Max. %. Here is the method:
(§3) The following example describes the assay that may be used to identify compounds that activate KCNQ4 or KCNQ5 channels.
(§4) The assays were performed using a FLIPR^TETRA (Molecular Devices, Sunnyvale, Calif.) in 384-well format. HEK293 cells stably expressing human KCNQ4 or KCNQ5 were seeded in 384-well, black-walled, clear-bottomed, poly-D-lysine coated plates (Greiner Bio-One, Germany) at a density of 1.5×10^4 cells per well, 24 hours before the assay. On the assay day, BTC-AM dye was loaded into the cells by replacing the cell culture medium with 30 μL/well of 2.8 μM dye in DPBS. Dye loading was allowed to proceed for 2 hours at room temperature and then cells were washed once in 30 μL/well of assay buffer (in mM: 10 HEPES pH 7.3, 5 glucose, 140 Na-gluconate, 2.5 K-gluconate, 3.6 Ca-gluconate, 2 MgSO4, 0.1 Ouabain) to remove unloaded dye. Cells were incubated in 30 μL of assay buffer before loading onto a FLIPR^TETRA system. Compounds to be assayed were added to the cells as 4× of final concentration in 15 μL of assay buffer and incubated for 4 minutes at room temperature. The influx signal was initiated by adding 15 μL of assay buffer containing 4.2 mM TlNO3 and 7 mM K2SO4. Tl^+ influx signals were recorded for 3 minutes. Tl^+ influx signal was quantified as light unit changes after Tl^+ addition using the “SUM” statistic from the FLIPR^TETRA software. Sums of the responses over basal responses were plotted versus concentrations of test compounds to obtain an EC50 value and the points fit with a nonlinear regression curve using GraphPad Prism software (GraphPad Software Inc., San Diego, Calif.). EC50 values were calculated from the resulting sigmoidal dose-response curves. The maximum response for each test compound was determined relative to the response produced by 10 μM retigabine. The maximum response of retigabine at 10 μM was set at 100%.

Experiment [3] concerns the target T2, human KCNQ2 and KCNQ3 subunits (KCNQ2/3 channels) (Homo sapiens, UniProt O43525+O43526).
T2 construct: expressed in transfected cells; host or cells: HEK293
The experiment can be described thus: KCNQ2/3 thallium influx FLIPR assay (BTC-AM dye). Type of experiment: cell-based. The following applies: for EC50: HEK293 cells stably expressing human KCNQ2 and KCNQ3, Tl+ influx; for Emax: maximum response relative to 10 μM retigabine (=100%), read-out: KCNQ2/3 Max. %. Here is the method: The following example describes the assay that may be used to identify compounds that activate KCNQ2/3 channels.
HEK293 cells stably expressing human KCNQ2 and KCNQ3 subunits were seeded in 96-well, black-walled, clear-bottomed, poly-D-lysine coated plates (BD Biosciences, Bedford, Mass.) at a density of 1×10^5 cells per well 24 hours before the assay. On the assay day, BTC-AM dye (Invitrogen, Carlsbad, Calif.) was loaded into the cells by replacing the cell culture medium with 55 μL/well of 3 μg/ml dye in Dulbecco's Phosphate Buffered Saline (DPBS) (Invitrogen). Dye loading was allowed to proceed for 2 hours at room temperature and then cells were washed twice with 50 μL/well of assay buffer (in mM: 10 HEPES pH 7.3, 5 glucose, 140 Na-gluconate, 2.5 K-gluconate, 3.6 Ca-gluconate, 2 MgSO4, 0.1 Ouabain) to remove unloaded dye. Cells were incubated in 50 μL of assay buffer before loading onto a FLIPR system (Molecular Devices, Sunnyvale, Calif.). Various concentrations of compounds to be assayed were added to the cells in 50 μL of assay buffer and incubated for 4 minutes. The fluorescence signal was initiated by adding 100 μL of assay buffer containing 6 mM TlNO3 and 10 mM K2SO4. Fluors were excited using the 488-nm line of an argon laser and emission was filtered using a 540±30 nm bandpass filter. Fluorescent signals were recorded for 3 minutes. Sums of the responses over basal responses were plotted versus concentrations of test compounds to obtain an EC50 value and the points fit with a nonlinear regression curve using GraphPad Prism software (GraphPad Software Inc., San Diego, Calif.). EC50 values were calculated from the resulting sigmoidal dose-response curves. The maximum response for each test compound was determined relative to the response produced by 10 μM retigabine. The maximum response of retigabine at 10 μM was set at 100%.

For experiment [4], the target named is T3, human KCNQ5 (Homo sapiens, UniProt Q9NR82).
T3 construct: expressed in transfected cells; host or cells: HEK293
The experiment can be described thus: KCNQ5 thallium influx FLIPR TETRA assay. As to conditions: for EC50: HEK293 cells stably expressing human KCNQ5, Tl+ influx; for Emax: maximum response relative to 10 μM retigabine (=100%), read-out: KCNQ5 Max. %. Type of experiment: cell-based. Here is the method:
as §3, §4

The test system of experiment [5] is chronic constriction injury-induced neuropathic pain. Briefly: Chronic constriction injury (CCI) model of neuropathic pain (Bennett model). Type of experiment: in vivo, Sprague-Dawley rats. As to conditions: rat CCI model, about 30 mg/kg i.p., 30 minutes or more before testing.
Source text: as §1
as §2, with “55.” for “55. Rats were placed into inverted individual plastic containers (20×12.5×20 cm) on top of a suspended wire mesh grid, and acclimated to the test chambers for 20 minutes.”, “administration. […]” for “administration.”

Experiment [6] concerns spinal nerve ligation-induced neuropathic pain. Briefly: Spinal nerve ligation (SNL) model of neuropathic pain. Type of experiment: in vivo, Sprague-Dawley rats. The following applies: rat SNL model, about 30 mg/kg i.p., 30 minutes or more before testing.
Source text: as §1
as §2, with “55.” for “55. Rats were placed into inverted individual plastic containers (20×12.5×20 cm) on top of a suspended wire mesh grid, and acclimated to the test chambers for 20 minutes.”, “administration. […]” for “administration.”

A value given as a limit tells only on which side of the number the result lay.

Usually EC50 stands for the concentration giving half of the maximal effect. Low values mean an effect from little substance, high ones a need for much substance. Turning to `CCc1nc2ccccc2c(=O)n1NC(=O)C[C@@H]1CC[C@H]2C[C@@H]1C2(C)C` [Example 2, 2-[(1S,2S,5S)-6,6-dimethylbicyclo[3.1.1]hept-2-yl]-N-(2-ethyl-4-oxoquinazolin-3(4H)-yl)acetamide], the “change in paw withdrawal latency versus vehicle (tactile allodynia)” value (“change … (tactile allodynia)” below) in experiment [1] is given as “statistically significant change in paw withdrawal latency versus vehicle”. For the same compound, the EC50 is above 30 µM in experiment [2], 0.1 to 0.5 µM in experiment [3] and above 30 µM in experiment [4]. Further, the Emax came to 22% in experiment [2], 109% in experiment [3] and 294% in experiment [4].
As for `CC(C)c1nc2ccccc2c(=O)n1NC(=O)C[C@@H]1CC[C@H]2C[C@@H]1C2(C)C` [Example 1, 2-[(1S,2S,5S)-6,6-dimethylbicyclo[3.1.1]hept-2-yl]-N-[4-oxo-2-(propan-2-yl)quinazolin-3(4H)-yl]acetamide], the “change … (tactile allodynia)” value in experiment [1] and in experiment [6] was “statistically significant change in paw withdrawal latency versus vehicle” in each case. In addition, the EC50 was above 30 µM in experiment [2], below 0.1 µM in experiment [3] and above 30 µM in experiment [4]. Further, the Emax in experiment [2] came out at 22%; in experiment [3], 103%; in experiment [4], 164%. Besides, the “change in paw withdrawal latency versus vehicle (mechanical allodynia)” value in experiment [5] was “statistically significant change in paw withdrawal latency versus vehicle”.
Take `CC1(C)[C@H]2CC[C@@H](CC(=O)Nn3c(C4CC4)nc4ccccc4c3=O)[C@@H]1C2` [Example 5, N-(2-cyclopropyl-4-oxoquinazolin-3(4H)-yl)-2-[(1S,2S,5S)-6,6-dimethylbicyclo[3.1.1]hept-2-yl]acetamide]: in experiment [1], the “change … (tactile allodynia)” value is “statistically significant change in paw withdrawal latency versus vehicle”. The EC50 in experiment [2] was above 30 µM; in experiment [3] it was below 0.1 µM; in experiment [4], above 30 µM. The Emax in experiment [2] was determined as 6%; in experiment [3], 93%; in experiment [4] it was 50%.
For `CC1(C)[C@H]2CC[C@@H](CC(=O)Nn3c(C4CC4)nc4sccc4c3=O)[C@@H]1C2` [Example 15, N-(2-cyclopropyl-4-oxothieno[2,3-d]pyrimidin-3(4H)-yl)-2-[(1S,2S,5S)-6,6-dimethylbicyclo[3.1.1]hept-2-yl]acetamide], the values for the EC50 in experiment [2], in experiment [3] and in experiment [4] were above 30 µM, 0.1 to 0.5 µM and above 30 µM, respectively. Besides, the Emax stood at 21% in experiment [2], 149% in experiment [3] and 210% in experiment [4]. The “change … (tactile allodynia)” value in experiment [6] is listed as “statistically significant change in paw withdrawal latency versus vehicle”.
